Data set [1] concerns Staphylococcus aureus enoyl-ACP reductase (saFabI). The conditions noted are these: cited from earlier work.
For another data set, the system named is MRSA strain BAA1762. Description: S. aureus thigh muscle infection model, in vivo efficacy. The conditions noted are these: mouse thigh muscle infection model. Set-up: species or system Swiss Webster mice.
The conditions of data set [2]: orally ingested, humans; cited from earlier work.
The conditions of data set [3]: in vivo; cited from earlier work.
Data set [4] relates to S. aureus infected thigh muscles. The conditions noted are these: in vivo; cited from earlier work.

For orientation: Ki means the dissociation constant of the complex between target and ligand, obtained from inhibition or displacement.

With `CCCCCCc1ccc(Oc2ccccc2C#N)c(O)c1` [PT119], in data set [1] (on saFabI), the residence time was 750 min. Also, the inhibition constant (Ki) in data set [1] (saFabI) is 0.01 nM. Besides, in the data set with MRSA strain BAA1762, the “reduction in the CFU's” value came out at 3 log.
Turning to `Oc1cc(Cl)ccc1Oc1ccc(Cl)cc1Cl` [triclosan], the “absorption from the gastrointestinal tract” value in data set [2] is reported as “readily absorbed”.
For the compound AFN-1252, the AUC/MIC in data set [3] is recorded as 20.
For [^18F]FDG, the “accumulation in infected thigh relative to healthy thigh” value in data set [4] is on record as 2.3 – 2.6 times.

Source of the values: publication PMC4254008 (European journal of medicinal chemistry, 2014).
